System: guinea pig main bronchus
Assay: EFS-induced cholinergic and tachykininergic contraction in the guinea pig main bronchus (organ bath)
Conditions: for Cholinergic Contraction, % of the first contraction / Tachykininergic contraction, % of the first contraction: EFS 30 V, 0.5 ms, 8 Hz, 15 s, 10 nmol/L tiotropium bromide and/or 30 μmol/L Compound 2, measured 20 min after addition, indomethacin 5 μmol/L, means ± S.E.M
[1] = 10 nmol/L tiotropium bromide and/or 30 μmol/L Compound 2, 20 min after addition

Compound	Effect on EFS-induced tachykininergic contraction (in words) [1]	Cholinergic Contraction, % of the first contraction	Tachykininergic contraction, % of the first contraction	Effect on EFS-induced cholinergic contraction (in words) [1]
COc1ccc(C(=O)Cc2c(Cl)cncc2Cl)c2c1OC1(CCCC1)O2 [Compound 2]	inhibited the tachykininergic contraction	105.8 ± 2.4 % of the first contraction	66.1 ± 6.5 % of the first contraction	–
tiotropium bromide	–	59.7 ± 6.3 % of the first contraction	90.9 ± 8.3 % of the first contraction	inhibited the cholinergic contraction

— patent US20060286040A1, “Medicament compositions comprising a heterocyclic compound and an anticholinergic” (Kyowa Hakko Kogyo Co., Ltd., priority 2003, published 2006)
